Data: patent publication US8710064B2, “2-aryl-4-quinazolinones and their pharmaceutical compositions” (China Medical University, priority 2011, dated 2014)
Like-named read-outs stand apart in the source and are kept apart here.

Experiments:
M21 = assay: trypan blue exclusion assay, M21 cells; format: cell-based; details: Homo sapiens
Description: M21 cell line (human malignant melanoma) was provided by Dr. Feng-Yao Tang (China Medical University, Taiwan). Cells were grown in monolayer culture in RPMI-1640 medium, Eagle's minimum essential medium or Dulbecco's modified Eagles medium (Invitrogen Corporation, Grand Island, N.Y., USA) containing 10% fetal bovine serum (FBS; HyClone, Logan, Utah, USA), 100 U/ml penicillin and 100 μg/ml streptomycin (Gibco BRL, Rockville, Md., USA).
(§1) Cell viability was also determined by trypan-blue exclusion assay. Cells were seeded in 6-well plates (2×10^4/well) for trypan blue exclusion assay, and incubated for 24 hours at 37° C. Culture medium containing test compound or DMSO (0.006%) was added to each well, and cells were incubated at 37° C. At indicated time points (0, 24, 48, 72 and 96 hr), cells were suspended with 0.05% trypsin-EDTA, and stained with trypan-blue dye (0.4%) (Sigma). The cell viability was evaluated by the percentage of death relative to the total cell, and cell growth curve was determined by number of live cells relative to the total number of cells.
(§2) The anti-proliferation effects of Compounds 17-31 on M21, CH27, H460, Hep3B and HSC-3 cells were evaluated by the trypan blue exclusion assay.

CH27 = assay: trypan blue exclusion assay, CH27 cells; format: cell-based; details: CH27 human lung squamous carcinoma
Description: CH27 cells (Human lung squamous carcinoma) were grown in monolayer culture in Dulbecco's modified Eagle's medium (DMEM; Life Technologies, Rockville, Md., USA) containing 5% FBS (HyClone, Logan, Utah, USA), 100 U/ml penicillin, […] streptomycin (Gibco BRL, Rockville, Md., USA) and 2 mM glutamine (Merck, Darmstadt, Germany).
as §1, §2

HSC-3 = assay: trypan blue exclusion assay, HSC-3 cells; format: cell-based, human; details: HSC-3 human squamous carcinoma; trypan blue exclusion assay
Description: The HSC-3 (human oral squamous cell carcinoma) were cultured in 1:1 Dulbecco's Modified Eagle's Medium (DMEM) and Ham's Nutrient Mixture F-12, containing 10% FBS (HyClone, Logan, Utah, USA), 100 U/ml penicillin, 100 μg/ml streptomycin (Gibco BRL, Rockville, Md., USA) and 2 mM glutamine (Merck, Darmstadt, Germany).
as §1, §2

[1] = system: M21, CH27, H460, Hep3B and HSC-3 cells; assay: trypan blue exclusion assay, cancer cell panel (summary); format: cell-based; details: summary of Table 2
Description: as §1, §2

C6 rat glioma = assay: MTS cell viability assay, C6 glioma cells; format: cell-based; details: 48 hours, mean±SEM, n=3
Description: The human glioma cell lines U87, U251, T98G, U373, and rat glioma cell line RT2 provided by Dr. Michael Hsiao (Genomics Research Center, Academia Sinica, Taiwan) were cultured in Dulbecco's Modified Eagle medium (DMEM) (Caisson) supplemented with 10% fetal bovine serum (FBS) (Sigma-Aldrich), 2 mM L-glutamine (Caisson), 100 U/ml penicillin, and 100 μg/ml streptomycin (Caisson). The rat glioma C6 cell line provided by Dr. Shun-Fen Tzeng (National Cheng Kung University, Taiwan) was cultured in DMEM/F12 (Caisson) supplemented with 10% fetal bovine serum, 2 mM L-glutamine, 100 U/ml penicillin, and 100 μg/ml streptomycin. The human normal glia cell line SVGP12, kindly provided by Dr. Michael Hsiao, was cultured in Minimum Essential Medium (MEM) (Invitrogen) supplemented with 10% fetal bovine serum, 2 mM L-glutamine, 100 U/ml penicillin, and […]. Primary glia cells were prepared by surgery. Cerebral cortices without meninges were dissected from postnatal (P0-P2) Sprague-Dawley (SD, NCKU Laboratory Animal Center) rats and dissociated in 0.05% trypsin-EDTA (Biowest) at 37° C. for 10 min. Culture medium was added and pipetted for several times, and supernatant was removed after a centrifugation at 1,000 rpm for 5 minutes. […]
Cell proliferation was determined by MTS (tetrazolium compound, 3-(4,5-dimethylthiazol-2-yl)-5-(3-carboxymethoxyphenyl)-2-(4-sulfophenyl)-2H-tetrazolium) assay (Promega). […] The absorbance of soluble formazan was measured at 490 nm with microplate reader (Molecular device). The cell viability was determined by the percentage of the absorption relative to untreated control. […]
To investigate the effect of 2-aryl-4-quinazolinone in accordance with the present invention on cell proliferation, glioma cell lines were treated with MJ-66, MJ-68, or MJ-78. […] The cell viability of each group was analyzed by MTS assay (mean±SEM, n=3).

For O=c1[nH]c(-c2cccc3ccccc23)nc2ccc(N3CCCC3)cc12 [Compound 23, 6-(Pyrrolidin-1-yl)-2-(naphthalen-1-yl)quinazolin-4-one], the IC50 (M21; M21, in vitro, read-out: IC50, growth of human malignant melanoma cells) was roughly 33 nM, the IC50 (M21; M21 skin cancer, trypan blue exclusion assay, read-out: IC50 M21) was 33 nM and the IC50 (CH27) was 53 nM. For the same molecule, the IC50 (HSC-3) was 41 nM, the “cytotoxic effects toward cancer cells” value [1] was “exhibited cytotoxic effects” and the IC50 (C6 rat glioma) was 56 ± 9 nM.
